# Experimental data reported in patent US20090203709A1, “Pharmaceutical Dosage Form For Oral Administration Of Tyrosine Kinase Inhibitor” (ABBOTT LABORATORIES, priority 2008, published 2009).
# Read-outs that look alike come from different tables or passages of the source. Marks after values point to notes of the source that are not given here.
# Legend:
# [1] = PK comparison across studies M04-710 and M05-756 (race, cancer type); assay type: in vivo, human; conditions: for Dose Normalized AUC24 / Dose Normalized Cmax: steady state; for half-life: human, plasma, oral
# Description: The objective of this analysis was to compare pharmacokinetic (PK) parameters and to monitor safety and early efficacy of ABT-869 when treating solid tumors versus hematologic malignances, Asian versus Caucasian populations and using solution versus tablet formulations.
# In study M04-710, blood samples for pharmacokinetic analysis were collected on Days 1 and 15 at the following times: 0 (pre-dose), 0.5, 1, 2, 3, 4, 6, 8, and 24 h (Day 1 only).
# In study M05-756, blood samples for pharmacokinetic analysis were collected on Days 1 and 8 at the following times: 0 (pre-dose), 0.5, 1, 2, 3, 4, 6, 8, and 24 h (Day 1 only). Urine was collected for the 24 hour period following dosing on Day 13 through bedtime on Day 14 (non-hematologic malignancy study) and following dosing after Day 6 and through bedtime on Day 7 (AML/MDS study). Plasma and urine concentrations of ABT-869 were determined under the supervision of the Drug Analysis Department at Abbott using LCMS/MS. PK parameters were determined by noncompartmental analysis using WinNonlin Professional Version 5.0.1.
# [2] = Safety in study M04-710 (adverse events, DLTs); assay type: in vivo, human
# Description: Study M04-710 and M05-756 are ongoing, open-label, multiple-dose escalation trials with ABT-869 administered daily for 21 consecutive days, with dose escalation scheduled in cohorts of 3 subjects. […] In both studies dosing was initiated at 10 mg QD, with subjects self-administering ABT-869 orally (admixed with approximately 60 mL of Ensure Plus or an approved alternative) at bedtime. Food was not allowed 2 h before or after dosing. As a portion of trial M04-710, the bioavailability of ABT-869 as a single dose in a 10 mg tablet formulation was determined relative to the solution formulation.
# (§1) The following safety evaluations were performed during the studies: adverse event monitoring, vital signs, ECGs, physical examination and laboratory tests assessments.
# [3] = human, in vivo
# Description: (§2) Food was not allowed 2 h before or after dosing.
# as §1
# [4] = Safety in study M05-756 (AML/MDS; adverse events, DLTs)
# Description: as §2, §1
# [5] = Asian population, N 37, adjusted mean (% CV)
# [6] = Caucasian population, N 12, adjusted mean (% CV)
# [7] = Hematologic malignancies, N 17, adjusted mean (% CV)
# [8] = Solid tumors, N 32, adjusted mean (% CV)
# [9] = all cycles, N = 27, highest grade per subject
# [10] = all cycles, N = 27, includes Skin Reaction, Skin Lesion, and Rash
# [11] = all cycles, N = 10, highest grade per subject
smiles,measurement,setting,value
"Cc1ccc(F)c(NC(=O)Nc2ccc(-c3cccc4[nH]nc(N)c34)cc2)c1 [ABT-869, N-[4-(3-amino-1H-indazol-4-yl)phenyl]-N′-(2-fluoro-5-methylphenyl)urea]",time to maximum plasma concentration,[1]; 42 patients across studies,approximately 3 h
same,Dose Normalized AUC24,[1]; [5],0.264 (41%) μg · hr/mL/mg
same,Dose Normalized Cmax,[1]; [5],0.018 (37%) μg/mL/mg
same,Dose Normalized AUC24,[1]; [6],0.229 (34%) μg · hr/mL/mg
same,Dose Normalized Cmax,[1]; [6],0.016 (27%) μg/mL/mg
same,Dose Normalized AUC24,[1]; [7],0.230 (39%) μg · hr/mL/mg
same,Dose Normalized Cmax,[1]; [7],0.018 (33%) μg/mL/mg
same,Dose Normalized AUC24,[1]; [8],0.273 (40%) μg · hr/mL/mg
same,Dose Normalized Cmax,[1]; [8],0.017 (39%) μg/mL/mg
same,half-life,"[1]; 42 patients across studies, read-out: mean terminal elimination half-life",13.9 to 23.1 h
same,half-life,"[1]; Asian population, N 37, adjusted mean (% CV), read-out: T1/2 (converted)",18.4 h
same,half-life,"[1]; Caucasian population, N 12, adjusted mean (% CV), read-out: T1/2 (converted)",14.5 h
same,half-life,"[1]; Hematologic malignancies, N 17, adjusted mean (% CV), read-out: T1/2 (converted)",15.7 h
same,half-life,"[1]; Solid tumors, N 32, adjusted mean (% CV), read-out: T1/2 (converted)",18.4 h
same,DLT: Grade 3 hypertension,[2]; 0.10 mg/kg,1 patient
same,DLT: Grade 3 hypertension,[2]; 0.25 mg/kg,1 patient
same,DLT: Grade 3 proteinuria,[2]; 0.25 mg/kg,1 patient
same,DLT: Grade 3 proteinuria and Grade 3 hypertension,[2]; 0.30 mg/kg,2 patients
same,DLT: Grade 3 fatigue,[2]; 10 mg/body,1 patient
same,"Anorexia, Overall","[2]; all cycles, N = 27",7 (25.9) n (%)
same,"Arthralgia, Overall","[2]; all cycles, N = 27",6 (22.2) n (%)
same,"Constipation, Overall","[2]; all cycles, N = 27",6 (22.2) n (%)
same,"Diarrhoea, Overall","[2]; all cycles, N = 27",7 (25.9) n (%)
same,"Fatigue, Overall","[2]; all cycles, N = 27",22 (81.5) n (%)
same,"Hypertension, Overall","[2]; all cycles, N = 27",12 (44.4) n (%)
same,"Myalgia, Overall","[2]; all cycles, N = 27",15 (55.6) n (%)
same,"Nausea, Overall","[2]; all cycles, N = 27",5 (18.5) n (%)
same,"Oral Pain, Overall","[2]; all cycles, N = 27",11 (40.7) n (%)
same,"Proteinuria, Overall","[2]; all cycles, N = 27",6 (22.2) n (%)
same,"Vomiting, Overall","[2]; all cycles, N = 27",5 (18.5) n (%)
same,"Anorexia, Grade 1",[2]; [9],6 n
same,"Anorexia, Grade 2",[2]; [9],1 n
same,"Anorexia, Grade 3/4",[2]; [9],0 n
same,"Arthralgia, Grade 1",[2]; [9],5 n
same,"Arthralgia, Grade 2",[2]; [9],1 n
same,"Arthralgia, Grade 3/4",[2]; [9],0 n
same,"Constipation, Grade 1",[2]; [9],0 n
same,"Constipation, Grade 2",[2]; [9],6 n
same,"Constipation, Grade 3/4",[2]; [9],0 n
same,"Diarrhoea, Grade 1",[2]; [9],6 n
same,"Diarrhoea, Grade 2",[2]; [9],1 n
same,"Diarrhoea, Grade 3/4",[2]; [9],0 n
same,"Fatigue, Grade 1",[2]; [9],14 n
same,"Fatigue, Grade 2",[2]; [9],4 n
same,"Hypertension, Grade 1",[2]; [9],0 n
same,"Hypertension, Grade 2",[2]; [9],8 n
same,"Hypertension, Grade 3/4",[2]; [9],4 n
same,"Myalgia, Grade 1",[2]; [9],9 n
same,"Myalgia, Grade 2",[2]; [9],6 n
same,"Myalgia, Grade 3/4",[2]; [9],0 n
same,"Nausea, Grade 1",[2]; [9],3 n
same,"Nausea, Grade 2",[2]; [9],2 n
same,"Nausea, Grade 3/4",[2]; [9],0 n
same,"Oral Pain, Grade 1",[2]; [9],9 n
same,"Oral Pain, Grade 2",[2]; [9],2 n
same,"Oral Pain, Grade 3/4",[2]; [9],0 n
same,"Proteinuria, Grade 1",[2]; [9],0 n
same,"Proteinuria, Grade 2",[2]; [9],2 n
same,"Proteinuria, Grade 3/4",[2]; [9],4 n
same,"Vomiting, Grade 1",[2]; [9],4 n
same,"Vomiting, Grade 2",[2]; [9],1 n
same,"Vomiting, Grade 3/4",[2]; [9],0 n
same,"Skin Related Event, Grade 1",[2]; [10],5 n
same,"Skin Related Event, Grade 2",[2]; [10],9 n
same,"Skin Related Event, Grade 3/4",[2]; [10],1 n
same,"Skin Related Event, Overall",[2]; [10],15 (55.6) n (%)
same,"Fatigue, Grade 3/4","[2]; all cycles, N = 27, occurred in cycle 3 or later",4** n
same,dose-limiting toxicities,[2]; study M04-710,"hypertension, proteinuria and fatigue are dose-limiting"
same,reversibility of toxicities,[2]; study M04-710,"treatable, or reversible with ABT-869 interruption"
same,"Klebsiella Bacteraemia, Grade 1",[3],0 n
same,"Klebsiella Bacteraemia, Grade 2",[3],0 n
same,"Klebsiella Bacteraemia, Grade 3/4",[3],2 n
same,"Klebsiella Bacteraemia, Overall",[3],2 (20.0) n (%)
same,Dose limiting fatigue,[4]; 20 mg/body cohort,3 patients
same,"Alopecia, Overall","[4]; all cycles, N = 10",2 (20.0) n (%)
same,"Anorexia, Overall","[4]; all cycles, N = 10",2 (20.0) n (%)
same,"Asthenia, Overall","[4]; all cycles, N = 10",3 (30.0) n (%)
same,"Constipation, Overall","[4]; all cycles, N = 10",2 (20.0) n (%)
same,"Cough, Overall","[4]; all cycles, N = 10",3 (30.0) n (%)
same,"Diarrhoea, Overall","[4]; all cycles, N = 10",4 (40.0) n (%)
same,"Fatigue, Overall","[4]; all cycles, N = 10",2 (20.0) n (%)
same,"Febrile Neutropenia, Overall","[4]; all cycles, N = 10",3 (30.0) n (%)
same,"Haematuria, Overall","[4]; all cycles, N = 10",2 (20.0) n (%)
same,"Hypocalcaemia, Overall","[4]; all cycles, N = 10",2 (20.0) n (%)
same,"Hypokalaemia, Overall","[4]; all cycles, N = 10",2 (20.0) n (%)
same,"Myalgia, Overall","[4]; all cycles, N = 10",2 (20.0) n (%)
same,"Nausea, Overall","[4]; all cycles, N = 10",2 (20.0) n (%)
same,"Palmar-plantar erythrodysaesthesia syndrome, Overall","[4]; all cycles, N = 10",2 (20.0) n (%)
same,"Pyrexia, Overall","[4]; all cycles, N = 10",3 (30.0) n (%)
same,"Alopecia, Grade 1",[4]; [11],0 n
same,"Alopecia, Grade 2",[4]; [11],2 n
same,"Alopecia, Grade 3/4",[4]; [11],0 n
same,"Anorexia, Grade 1",[4]; [11],2 n
same,"Anorexia, Grade 2",[4]; [11],0 n
same,"Anorexia, Grade 3/4",[4]; [11],0 n
same,"Asthenia, Grade 1",[4]; [11],1 n
same,"Asthenia, Grade 2",[4]; [11],0 n
same,"Asthenia, Grade 3/4",[4]; [11],2 n
same,"Constipation, Grade 1",[4]; [11],2 n
same,"Constipation, Grade 2",[4]; [11],0 n
same,"Constipation, Grade 3/4",[4]; [11],0 n
same,"Cough, Grade 1",[4]; [11],3 n
same,"Cough, Grade 2",[4]; [11],0 n
same,"Cough, Grade 3/4",[4]; [11],0 n
same,"Diarrhoea, Grade 1",[4]; [11],2 n
same,"Diarrhoea, Grade 2",[4]; [11],1 n
same,"Diarrhoea, Grade 3/4",[4]; [11],1 n
same,"Fatigue, Grade 1",[4]; [11],1 n
same,"Fatigue, Grade 2",[4]; [11],1 n
same,"Fatigue, Grade 3/4",[4]; [11],0 n
same,"Febrile Neutropenia, Grade 1",[4]; [11],0 n
same,"Febrile Neutropenia, Grade 2",[4]; [11],0 n
same,"Febrile Neutropenia, Grade 3/4",[4]; [11],3 n
same,"Haematuria, Grade 1",[4]; [11],1 n
same,"Haematuria, Grade 2",[4]; [11],1 n
same,"Haematuria, Grade 3/4",[4]; [11],0 n
same,"Hypocalcaemia, Grade 1",[4]; [11],2 n
same,"Hypocalcaemia, Grade 2",[4]; [11],0 n
same,"Hypocalcaemia, Grade 3/4",[4]; [11],0 n
same,"Hypokalaemia, Grade 1",[4]; [11],2 n
same,"Hypokalaemia, Grade 2",[4]; [11],0 n
same,"Hypokalaemia, Grade 3/4",[4]; [11],0 n
same,"Myalgia, Grade 1",[4]; [11],1 n
same,"Myalgia, Grade 2",[4]; [11],0 n
same,"Myalgia, Grade 3/4",[4]; [11],1 n
same,"Nausea, Grade 1",[4]; [11],2 n
same,"Nausea, Grade 2",[4]; [11],0 n
same,"Nausea, Grade 3/4",[4]; [11],0 n
same,"Palmar-plantar erythrodysaesthesia syndrome, Grade 1",[4]; [11],2 n
same,"Palmar-plantar erythrodysaesthesia syndrome, Grade 2",[4]; [11],0 n
same,"Palmar-plantar erythrodysaesthesia syndrome, Grade 3/4",[4]; [11],0 n
same,"Pyrexia, Grade 1",[4]; [11],1 n
same,"Pyrexia, Grade 2",[4]; [11],1 n
same,"Pyrexia, Grade 3/4",[4]; [11],1 n
same,dose-limiting toxicities,[4]; study M05-756,fatigue is dose-limiting
same,reversibility of toxicities,[4]; study M05-756,"treatable, or reversible with ABT-869 interruption"
